In patent US8927560B2, “4-Aza-2, 3-didehydropodophyllotoxin compounds and process for the preparation thereof” (Council of Scientific & Industrial Research, priority 2010, dated 2015):

What was measured:
DWD = test: SRB in vitro cytotoxicity assay, DWD oral cancer cells; format: cell-based; conditions: Homo sapiens, 48 h drug exposure, read-out: In vitro anticancer activity GI50, Oral DWD
Text: (§1) Compounds 4a-4z and 4aa-4ae have been evaluated for their in vitro cytotoxicity in selected human cancer cell lines i.e., colon (Colo205), lung (Hop-62, A549), cervix (SiHa), prostate (PC3), oral (KB, DWD, Gurav), Ovarian (A-2780) and breast (MCF7, Zr-75-1) origin by employing the sulforhodamine B (SRB) assay method (Skehn, P.; Storeng, R.; Scudiero, A.; Monks, J.; MeMohan, D.; Vistica, D.; Jonathan, T. W.; Bokesch, H.; Kenney, S.; Boyd M. R. J. Natl. Cancer Inst. 1990, 82, 1107).
(§2) The synthesized compounds have been evaluated for their in vitro cytotoxicity in human cancer cell lines. A protocol of 48 h continuous drug exposure has been used and a sulforhodamine B (SRB) protein assay has been used to estimate cell viability or growth. The cell lines were grown in DMEM medium containing 10% fetal bovine serum and 2 mM L-glutamine and were inoculated into 96 well microtiter plates in […] at plating densities depending on the doubling time of individual cell lines. The microliter plates were incubated at 37_C, 5% CO2, 95% air, and 100% relative humidity for 24 h prior to addition of experimental drugs. Aliquots of […] of the drug dilutions were added to the appropriate microliter wells already containing […] of cells, suiting in the required final drug concentrations. For each compound four concentrations (0.1, 1, 10 and 100 uM) were evaluated and each was done in triplicate wells. Plates were incubated further for 48 h and assay was terminated by the addition of […] of cold trichloro acetic acid (TCA) (final concentration, 10% TCA) and incubated for 60 min at 4_C. The plates were washed five times with tap water and airdried. Sulforhodamine B (SRB) solution ([…]) at 0.4% (w/v) in 1% acetic acid was added to each of the cells, and plates were incubated for 20 min at room temperature. The residual dye was removed by washing five times with 1% acetic acid. The plates were airdried. Bound stain was subsequently eluted with 10 mM trizma base, and the absorbance was read on an ELISA plate reader at a wavelength of 540 nm with 690 nm reference wavelengths. Percent growth was calculated on a plate by plate basis for test wells relative to control wells. The above determinations were repeated three times. Percentage growth was expressed as the (ratio of average absorbance of the test well to the average absorbance of the control wells)*100. Growth inhibition of 50% (GI50) was calculated from [(Ti−Tz)/(C−Tz)]*100 ¼ 50, which is the drug concentration resulting in a 50% reduction in the net protein increase (as measured by SRB staining) in control cells during the drug incubation. Where, Tz ¼ Optical density at time zero, OD of control ¼ C, and OD of test growth in the presence of drug ¼ Ti.

SiHa = test: SRB in vitro cytotoxicity assay, SiHa cervix cancer cells; format: cell-based; conditions: Homo sapiens, 48 h drug exposure, read-out: In vitro anticancer activity GI50, Cervix SiHa
Text: as §1, §2

MCF7 = test: SRB in vitro cytotoxicity assay, MCF7 breast cancer cells; format: cell-based; conditions: Homo sapiens, 48 h drug exposure, read-out: In vitro anticancer activity GI50, Breast MCF7
Text: as §1, §2

KB = test: SRB in vitro cytotoxicity assay, KB oral cancer cells; format: cell-based; conditions: Homo sapiens, 48 h drug exposure, read-out: In vitro anticancer activity GI50, Oral KB
Text: as §1, §2

Hop62 = test: SRB in vitro cytotoxicity assay, Hop62 lung cancer cells; format: cell-based; conditions: Homo sapiens, HOP-62, 48 h drug exposure, read-out: In vitro anticancer activity GI50, Lung Hop62
Text: as §1, §2

Gurav = test: SRB in vitro cytotoxicity assay, Gurav oral cancer cells; format: cell-based; conditions: Homo sapiens, 48 h drug exposure, read-out: In vitro anticancer activity GI50, Oral Gurav
Text: as §1, §2

PC3 = test: SRB in vitro cytotoxicity assay, PC3 prostate cancer cells; format: cell-based; conditions: Homo sapiens, PC-3, 48 h drug exposure, read-out: In vitro anticancer activity GI50, Prostate PC3
Text: as §1, §2

A-2780 = test: SRB in vitro cytotoxicity assay, A-2780 ovarian cancer cells; format: cell-based; conditions: Homo sapiens, A2780, 48 h drug exposure, read-out: In vitro anticancer activity GI50, Ovarian A-2780
Text: as §1, §2

Colo 205 = test: SRB in vitro cytotoxicity assay, Colo 205 colon cancer cells; format: cell-based; conditions: Homo sapiens, 48 h drug exposure, read-out: In vitro anticancer activity GI50, Colon Colo 205
Text: as §1, §2

Zr-75-1 = test: SRB in vitro cytotoxicity assay, Zr-75-1 breast cancer cells; format: cell-based; conditions: Homo sapiens, 48 h drug exposure, read-out: In vitro anticancer activity GI50, Breast Zr-75-1
Text: as §1, §2

A-549 = test: SRB in vitro cytotoxicity assay, A-549 lung cancer cells; format: cell-based; conditions: Homo sapiens, A549, 48 h drug exposure, read-out: In vitro anticancer activity GI50, Lung A-549
Text: as §1, §2

SMILES	GI50 (DWD) [nM]	GI50 (SiHa) [nM]	GI50 (MCF7) [nM]	melting point [°C]	GI50 (KB) [nM]	GI50 (Hop62) [nM]	GI50 (Gurav) [nM]	GI50 (PC3) [nM]	GI50 (A-2780) [nM]	GI50 (Colo 205) [nM]	GI50 (Zr-75-1) [nM]	GI50 (A-549) [nM]
COc1ccc(C2C3=C(COC3=O)Nc3ccc4ncsc4c32)cc1O (stereo not drawn) [Compound 4u, 10-(3-hydroxy-4-methoxyphenyl)-6,7,9,10-tetrahydrofuro[3,4-b][1,3]thiazolo[5,4-f]quinolin-9-one]	2000	2000	180	327 to 329	180	2300	190	2100	180	150	160	< 100
COc1cc(C2C3=C(COC3=O)Nc3ccc4cn[nH]c4c32)cc(OC)c1OC (stereo not drawn) [Compound 4n, 10-(3,4,5-trimethoxyphenyl)-6,7,9,10-tetrahydro-1H-furo[3,4-b]pyrazolo[3,4-f]quinolin-9-one]	< 100	190	190	–	2100	2100	160	190	140	2700	160	< 100
COc1cccc2c1C(=O)c1c(O)c3c(c(O)c1C2=O)C[C@@](O)(C(=O)CO)C[C@@H]3O[C@H]1C[C@H](N)[C@H](O)[C@H](C)O1 [ADR, adriamycin, reference compound]	< 100	160	130	–	130	150	< 100	160	< 100	< 100	110	< 100
COc1cc(C2C3=C(COC3=O)Nc3onc(-c4ccc(Cl)cc4)c32)cc(OC)c1OC (stereo not drawn) [Compound 4ac, 3-(4-chlorophenyl)-4-(3,4,5-trimethoxyphenyl)-4,5,7,8-tetrahydrofuro[3′,4′:5,6]pyrido[3,2-d]isoxazol-5-one]	2000	2300	2300	248 to 249	2400	2500	180	2300	2000	–	190	< 100
